According to patent US20240299352A1, “COMBINATION THERAPIES WITH SETD2 INHIBITORS” (Epizyme, Inc., priority 2021, published 2024):

What was measured:
[1] = system: RL; experiment: Co-treatment combination study with Cpd. No. 15, CellTiter-Glo viability, Loewe Volume; type: cell-based; conditions: in combination with Cpd. No. 15; 6-Day Cotreatment; DLBCL cell line RL
Method: (§1) Mantle cell lymphoma (MCL) and diffuse large B-cell lymphoma (DLBCL) cell line cultures in log-linear growth rate were treated with combinations of Cpd. No. 15 and combination partners according to a co-treatment model. […] No. 15 and the combination partner. […] Each combination was tested in quadruplicate wells. The final concentration of DMSO (vehicle) in the assay was 0.1% v/v. Fifty microliters of cell line suspension were directly dispensed to the assay-ready plates with an automated multichannel dispenser on to 384-well assay-ready plates. Assay plates were incubated for seven days unless otherwise indicated in a humidified atmosphere of 5% CO2 at 37° C. Quantification of the effect of single agents or combinations on cell viability was performed through measurement of cellular adenosine triphosphate (ATP) using a CellTiter-Glo® (Promega, Madison, WI) Luminescent Cell Viability Assay. Luminescence was detected using a SpectraMax M5 microplate reader (Molecular Devices, Sunnyvale, CA). Concentration response plots were generated in GraphPad Prism version 7.0 for Windows, GraphPad Software, (La Jolla, California) and curves fitted to a four-parameter logistic model with variable slope. Percent of inhibition was calculated at each treatment concentration.

[2] = system: SUDHL5; experiment: as above; type: cell-based; conditions: in combination with Cpd. No. 15, seven days, DLBCL cell line SUDHL5
Method: as §1

[3] = system: MAVER1; experiment: as above; type: cell-based; conditions: in combination with Cpd. No. 15, seven days, mantle cell lymphoma cell line MAVER1 (CRL-3008)
Method: as §1

[4] = system: WSUDLCL2; experiment: as above; type: cell-based; conditions: in combination with Cpd. No. 15, seven days, DLBCL cell line WSUDLCL2
Method: as §1

[5] = system: GRANTA519; experiment: as above; type: cell-based; conditions: in combination with Cpd. No. 15, seven days, mantle cell lymphoma cell line GRANTA519 (ACC 342)
Method: as §1

[6] = system: JEKO1; experiment: as above; type: cell-based; conditions: in combination with Cpd. No. 15, seven days, mantle cell lymphoma cell line JEKO1 (CRL-3006)
Method: as §1

[7] = system: HT; experiment: as above; type: cell-based; conditions: in combination with Cpd. No. 15, seven days, DLBCL cell line HT
Method: as §1

[8] = system: SUDHL2; experiment: as above; type: cell-based; conditions: in combination with Cpd. No. 15, seven days, DLBCL cell line SUDHL2
Method: as §1

[9] = system: DB; experiment: as above; type: cell-based; conditions: in combination with Cpd. No. 15, seven days, DLBCL cell line DB
Method: as §1

[10] = system: TOLEDO; experiment: as above; type: cell-based; conditions: in combination with Cpd. No. 15, seven days, DLBCL cell line TOLEDO
Method: as §1

[11] = system: WILL2; experiment: as above; type: cell-based; conditions: in combination with Cpd. No. 15, seven days, DLBCL cell line WILL2
Method: as §1

[12] = system: REC1; experiment: as above; type: cell-based; conditions: in combination with Cpd. No. 15, seven days, mantle cell lymphoma cell line REC1 (CRL-3004)
Method: as §1

[13] = system: SUDHL6; experiment: as above; type: cell-based; conditions: in combination with Cpd. No. 15, seven days, DLBCL cell line SUDHL6
Method: as §1

[14] = system: MINO; experiment: as above; type: cell-based; conditions: in combination with Cpd. No. 15, seven days, mantle cell lymphoma cell line MINO (CRL-3000)
Method: as §1

[15] = system: SUDHL4; experiment: as above; type: cell-based; conditions: in combination with Cpd. No. 15, seven days, DLBCL cell line SUDHL4
Method: as §1

[16] = system: JVM2; experiment: as above; type: cell-based; conditions: in combination with Cpd. No. 15, seven days, mantle cell lymphoma cell line JVM2 (CRL-3002)
Method: as §1

[17] = system: DOHH2; experiment: as above; type: cell-based; conditions: in combination with Cpd. No. 15, seven days, DLBCL cell line DOHH2
Method: as §1

[18] = system: SUDHL10; experiment: as above; type: cell-based; conditions: in combination with Cpd. No. 15; 5-Day Cotreatment; DLBCL cell line SUDHL10
Method: as §1

[19] = system: KARPAS422; experiment: as above; type: cell-based; conditions: in combination with Cpd. No. 15, seven days, DLBCL cell line KARPAS422
Method: as §1

[20] = system: WSUNHL; experiment: as above; type: cell-based; conditions: in combination with Cpd. No. 15, seven days, DLBCL cell line WSUNHL
Method: as §1

[21] = system: Z138; experiment: as above; type: cell-based; conditions: in combination with Cpd. No. 15, seven days, mantle cell lymphoma cell line Z138 (CRL-3001)
Method: as §1

[22] = system: SUDHL8; experiment: as above; type: cell-based; conditions: in combination with Cpd. No. 15, seven days, DLBCL cell line SUDHL8
Method: as §1

[23] = system: Pfeiffer; experiment: as above; type: cell-based; conditions: in combination with Cpd. No. 15, seven days, DLBCL cell line Pfeiffer
Method: as §1

[24] = system: diffuse large B-cell lymphoma (DLBCL) cell lines; experiment: Pre-treatment model combination study with Cpd. No. 15 (7 days pre-treatment, then combination; Table G), CellTiter-Glo viability, Loewe Volume; conditions: 7 days pre-treatment with Cpd. No. 15, then combination; for Combination effect with Cpd. No. 15 (Loewe Volume class), Farage: cell line Farage (Cat. No. CRL-2630); for Combination effect with Cpd. No. 15 (Loewe Volume class), HT: cell line HT (Cat. No. CRL-2631); for Combination effect with Cpd. No. 15 (Loewe Volume class), OCILY7: cell line OCILY7 (Cat. No. ACC 688); for Combination effect with Cpd. No. 15 (Loewe Volume class), SUDHL4: cell line SUDHL4 (Cat. No. ACC 495)
[25] = system: diffuse large B-cell lymphoma (DLBCL) cell lines; experiment: Co-treatment combination study with Cpd. No. 15, further cell lines (Table F), CellTiter-Glo viability, Loewe Volume; type: cell-based; conditions: for Combination effect with Cpd. No. 15 (Loewe Volume class), Ri1: co-treatment with Cpd. No. 15, cell line Ri1 (Cat. No. 96090512-1VL); for Combination effect with Cpd. No. 15 (Loewe Volume class), TMD8: co-treatment with Cpd. No. 15, cell line TMD8 (Cat. No. M-097); for Combination effect with Cpd. No. 15 (Loewe Volume class), WILL1: co-treatment with Cpd. No. 15, cell line WILL1 (Cat. No. ACC 651)
Method: as §1

SMILES | Combination effect (Loewe Volume) RL [1] | Combination effect (Loewe Volume) SUDHL5 [2] | Combination effect (Loewe Volume) MAVER1 [3] | Combination effect (Loewe Volume) WSUDLCL2 [4] | Combination effect (Loewe Volume) GRANTA519 [5] | Combination effect (Loewe Volume) JEKO1 [6] | Combination effect (Loewe Volume) HT [7] | Combination effect (Loewe Volume) SUDHL2 [8] | Combination effect (Loewe Volume) DB [9] | Combination effect (Loewe Volume) TOLEDO [10] | Combination effect (Loewe Volume) WILL2 [11] | Combination effect (Loewe Volume) REC1 [12] | Combination effect (Loewe Volume) SUDHL6 [13] | Combination effect (Loewe Volume) MINO [14] | Combination effect (Loewe Volume) SUDHL4 [15] | Combination effect (Loewe Volume) JVM2 [16] | Combination effect (Loewe Volume) DOHH2 [17] | Combination effect (Loewe Volume) SUDHL10 [18] | Combination effect (Loewe Volume) KARPAS422 [19] | Combination effect (Loewe Volume) WSUNHL [20] | other results
C=CC(=O)N1CCC([C@@H]2CCNc3c(C(N)=O)c(-c4ccc(Oc5ccccc5)cc4)nn32)CC1 [Zanubrutinib, zanubrutinib] | No Effect | No Effect | Synergy (VLoewe>1: synergy) | Additivity (between 1 and −1: additivity) | Additivity (between 1 and −1: additivity) | Synergy (VLoewe>1: synergy) | No Effect | No Effect | No Effect | Additivity (between 1 and −1: additivity) | Additivity (between 1 and −1: additivity) | Additivity (between 1 and −1: additivity) | Synergy (VLoewe>1: synergy) | Synergy (VLoewe>1: synergy) | Synergy (VLoewe>1: synergy) | Additivity (between 1 and −1: additivity) | Synergy (VLoewe>1: synergy) | No Effect | No Effect | Additivity (between 1 and −1: additivity) | Combination effect (Loewe Volume) Z138 [21]: No Effect; Combination effect (Loewe Volume) SUDHL8 [22]: No Effect; Combination effect (Loewe Volume) Pfeiffer [23]: No Effect; Combination effect with Cpd. No. 15 (Loewe Volume class), Farage [24]: Synergy (VLoewe>1: synergy); Combination effect with Cpd. No. 15 (Loewe Volume class), HT [24]: Synergy (VLoewe>1: synergy); Combination effect with Cpd. No. 15 (Loewe Volume class), OCILY7 [24]: Synergy (VLoewe>1: synergy); Combination effect with Cpd. No. 15 (Loewe Volume class), SUDHL4 [24]: Synergy (VLoewe>1: synergy); Combination effect with Cpd. No. 15 (Loewe Volume class), Ri1 [25]: Synergy (VLoewe>1: synergy); Combination effect with Cpd. No. 15 (Loewe Volume class), TMD8 [25]: Synergy (VLoewe>1: synergy); Combination effect with Cpd. No. 15 (Loewe Volume class), WILL1 [25]: No Effect
CC#CC(=O)N1CCC[C@H]1c1nc(-c2ccc(C(=O)Nc3ccccn3)cc2)c2c(N)nccn12 [Acalabrutinib, acalabrutinib] | No Effect | No Effect | Synergy (VLoewe>1: synergy) | Additivity (between 1 and −1: additivity) | Additivity (between 1 and −1: additivity) | Synergy (VLoewe>1: synergy) | No Effect | No Effect | No Effect | No Effect | Additivity (between 1 and −1: additivity) | Additivity (between 1 and −1: additivity) | Synergy (VLoewe>1: synergy) | Synergy (VLoewe>1: synergy) | No Effect | Additivity (between 1 and −1: additivity) | No Effect | No Effect | No Effect | No Effect | Combination effect (Loewe Volume) Z138 [21]: No Effect; Combination effect (Loewe Volume) SUDHL8 [22]: No Effect; Combination effect (Loewe Volume) Pfeiffer [23]: No Effect; Combination effect with Cpd. No. 15 (Loewe Volume class), Farage [24]: Synergy (VLoewe>1: synergy); Combination effect with Cpd. No. 15 (Loewe Volume class), HT [24]: No Effect; Combination effect with Cpd. No. 15 (Loewe Volume class), OCILY7 [24]: No Effect; Combination effect with Cpd. No. 15 (Loewe Volume class), SUDHL4 [24]: No Effect; Combination effect with Cpd. No. 15 (Loewe Volume class), WILL2 ([24]; cell line WILL2 (Cat. No. ACC 652)): No Effect; Combination effect with Cpd. No. 15 (Loewe Volume class), Ri1 [25]: Synergy (VLoewe>1: synergy); Combination effect with Cpd. No. 15 (Loewe Volume class), TMD8 [25]: Synergy (VLoewe>1: synergy); Combination effect with Cpd. No. 15 (Loewe Volume class), WILL1 [25]: No Effect
